Experimental data: US20030220396A1, “Method for treating ocular hypertension and glaucoma” (SUCAMPO AG, priority 2002, published 2003)

How the values were obtained:
Assay type in all cases: in vivo
[1] = system: intraocular pressure (IOP); assay: IOP lowering after instillation of ophthalmic solution in cynomolgus monkeys (Example 1); details: for ΔIOP · AUC0-24 h Mean ± S.E.: 0.001 w/v% solution, 30 μL/eye
Description: (§1) In the following examples, the osmolarity was measured by means of OSMOMETER (Model OM-801, VOGEL) at room temperature.
Two kinds of test ophthalmic solutions each containing 0.001 w/v% of test substance 1 (13,14-dihydro-15-keto-17-phenyl-18,19,20-trinor-PGF2αisopropyl ester), which is 15-keto-prostaglandin compound having a ring structure at the end of the ω chain were prepared. The osmolarity ratio of one solution was adjusted to 0.7 (osmolarity: 200 mOsm) and the other was adjusted to 1.0 (osmolarity: 286 mOsm). Nine cynomolgus monkeys were used for the example. One of the test solutions was instilled (30 μL/eye) into one eye of the monkey, and one week after, the other test solution was instilled (30 μL/eye) into the same eye.

[2] = system: intraocular pressure (IOP); assay: IOP lowering after instillation of ophthalmic solution in cynomolgus monkeys (Example 2); details: for ΔIOP · AUC0-24 h Mean ± S.E.: 0.001 w/v% solution, 30 μL/eye, in mmHg·h (unit assumed)
Description: as §1
Three kinds of ophthalmic solutions each containing 0.001 w/v% of test substance 1 were prepared and used. The osmolarity ratio of the solutions were adjusted to 0.8 (osmolarity: 229 mOsm), 1.0 (osmolarity: 286 mOsm) and 1.3 (osmolarity: 372 mOsm) respectively. Eight cynomolgus monkeys were used for this example. Test solutions were instilled to the monkey in the same manner as Example 1, i.e. 30 μL/eye of each solution was serially instilled to same eye with one-week intervals between the instillations.

[3] = system: intraocular pressure (IOP); assay: IOP lowering after instillation of ophthalmic solution in white rabbit (Comparative Example); details: for ΔIOP · AUC0-6 h Mean ± S.E.: 0.05 w/v% solution, 35 μL/eye, in mmHg·h (unit assumed)
Description: as §1
Three kinds of ophthalmic solutions each containing 0.05 w/v% of test substance 2 (13,14-dihydro-15-keto-20-ethyl-PGF2αisopropyl ester), which is a 15-keto-prostaglandin compound having a linear structure at the end of the ω chain, were prepared and used. The osmolarity ratio of the solutions were adjusted to 0.3 (osmolarity: 86 mOsm), 0.7 (osmolarity: 200 mOsm) and 1.0 (osmolarity: 286 mOsm), respectively. Each of the test solutions (35 μL/eye) was instilled serially into one eye of a white rabbit with one-week intervals between the installations.

[4] = osmolarity ratio 1.0 (286 mOsm)

Compound | ΔIOP · AUC0-24 h Mean ± S.E. ([1]; osmolarity ratio 0.7 (200 mOsm), in mmHg·h (unit assumed)) | ΔIOP · AUC0-24 h Mean ± S.E. ([1]; osmolarity ratio 1.0 (286 mOsm), p < 0.05 vs ratio 0.7, in mmHg·h (unit assumed)) | IOP lowering effect, comparison in words ([1]; osmolarity ratio 1.0 compared with osmolarity ratio 0.7, 0.001 w/v%) | ΔIOP · AUC0-24 h Mean ± S.E. ([2]; osmolarity ratio 0.8 (229 mOsm)) | ΔIOP · AUC0-24 h Mean ± S.E. [2, 4] | ΔIOP · AUC0-24 h Mean ± S.E. ([2]; osmolarity ratio 1.3 (372 mOsm)) | IOP lowering effect, comparison in words ([2]; osmolarity ratio 1.0 compared with osmolarity ratio 0.8 and 1.3, 0.001 w/v%) | ΔIOP · AUC0-6 h Mean ± S.E. ([3]; osmolarity ratio 0.3 (86 mOsm)) | ΔIOP · AUC0-6 h Mean ± S.E. ([3]; osmolarity ratio 0.7 (200 mOsm)) | ΔIOP · AUC0-6 h Mean ± S.E. [3, 4] | IOP lowering effect, comparison in words ([3]; osmolarity ratio 0.3, 0.7 and 1.0 compared, 0.05 w/v%)
CC(C)OC(=O)CCC/C=C\C[C@@H]1[C@@H](CCC(=O)CCc2ccccc2)[C@H](O)C[C@@H]1O [Test Substance 1, 13,14-dihydro-15-keto-17-phenyl-18,19,20-trinor-PGF2αisopropyl ester] | 22.8 ± 11.8 | 55.1 ± 10.7 | significantly greater IOP lowering effect | 41.1 ± 18.7 | 62.3 ± 19.3 | 37.9 ± 14.8 | greater IOP lowering effect |  |  |  | 
CCCCCCCC(=O)CC[C@@H]1[C@@H](C/C=C\CCCC(=O)OC(C)C)[C@@H](O)C[C@H]1O [Test Substance 2, 13,14-dihydro-15-keto-20-ethyl-PGF2αisopropyl ester] |  |  |  |  |  |  |  | 18.9 ± 4.4 | 22.5 ± 5.1 | 20.3 ± 4.6 | substantially the same IOP lowering effect
